The values that follow are results of earlier work, collected in US10045960B2, “Coating composition and medical device” (TERUMO KABUSHIKI KAISHA, priority 2012, dated 2018).

Structures are written as SMILES.

The conditions of this data set: hydropathy index according to Kyte and Doolittle, J. Mol. Biol., 157, 105-132 (1982).

With `C[C@H](N)C(=O)O` [Alanine], the “H.I. (hydropathy index)” value is on record as 1.8.

As to `N=C(N)NCCC[C@H](N)C(=O)O` [Arginine], the “H.I. (hydropathy index)” value is recorded as −4.5.

On to `NC(=O)C[C@H](N)C(=O)O` [Asparagine], for which the “H.I. (hydropathy index)” value is −3.5.

For the compound `N[C@@H](CC(=O)O)C(=O)O` [Aspartic acid], the “H.I. (hydropathy index)” value is on record as −3.5.

Turning to `N[C@@H](CS)C(=O)O` [Cysteine], the “H.I. (hydropathy index)” value is listed as 2.5.

For the compound `N[C@@H](CCC(=O)O)C(=O)O` [Glutamic acid], the “H.I. (hydropathy index)” value is reported as −3.5.

Regarding `N[C@@H](Cc1c[nH]cn1)C(=O)O` [Histidine], the “H.I. (hydropathy index)” value was −3.2.

`CC[C@H](C)[C@H](N)C(=O)O` [Isoleucine]: the “H.I. (hydropathy index)” value is 4.5.

`NCCCC[C@H](N)C(=O)O` [Lysine]: the “H.I. (hydropathy index)” value is on record as −3.9.

Consider `CSCC[C@H](N)C(=O)O` [Methionine], for which the “H.I. (hydropathy index)” value is listed as 1.9.

On to `N[C@@H](Cc1ccccc1)C(=O)O` [Phenylalanine], for which the “H.I. (hydropathy index)” value is listed as 2.8.

On to `N[C@@H](CO)C(=O)O` [Serine], for which the “H.I. (hydropathy index)” value is listed as −0.8.

As to `C[C@@H](O)[C@H](N)C(=O)O` [Threonine], the “H.I. (hydropathy index)” value is reported as −0.7.

Take `N[C@@H](Cc1c[nH]c2ccccc12)C(=O)O` [Tryptophan]: the “H.I. (hydropathy index)” value is reported as −0.9.

In the case of `N[C@@H](Cc1ccc(O)cc1)C(=O)O` [Tyrosine], the “H.I. (hydropathy index)” value is recorded as −1.3.

Consider `CC(C)[C@H](N)C(=O)O` [Valine], for which the “H.I. (hydropathy index)” value was 4.2.
